Test system: Q35 animals (C. elegans model of polyQ aggregation)
Experiment: polyQ aggregation in Q35 animals treated with cholinergic agonists
Type: in vivo
Conditions: one day old (L1s) Q35 animals
Procedure: FIG. 1A: One day old (L1s) Q35 animals were treated with 25 μM levamisole or 1 mM nicotine. The white boxes indicate magnified areas shown below. The photographs are from 4 days old animals.
FIG. 1B are bar graphs showing the number of aggregates in Q35 animals treated with nicotine, levamisole or control animals as a function of age (days).
Additional methods are described in Garcia et al. (2007), Genes and Development 21: 3006-16.

Row | SMILES | polyQ aggregation compared to control animals (25 μM levamisole) | polyQ aggregation compared to control animals (1 mM nicotine)
1 | c1ccc([C@H]2CN3CCSC3=N2)cc1 [levamisole] | increased polyQ aggregation | 
2 | CN1CCCC1c1cccnc1 (centres unmarked) [nicotine] |  | increased polyQ aggregation

Reference: patent US20130310439A1, “METHOD OF REDUCING PROTEINS MISFOLDING AND/OR AGGREGATION” (Universidade De Lisboa, priority 2010, published 2013)
